Assay: xn = mol fraction of the nth substance listed
Settings: for surface tension liquid-gas: Capillary rise; for viscosity / mass density: Liquid; for viscosity: Falling or rolling sphere viscometry; for mass density: Vibrating tube method

CC(=O)OCc1ccccc1 [benzyl ethanoate] + CCO
surface tension liquid-gas [mN/m]
Settings | 293.15 K | 303.15 K | 313.15 K | 323.15 K
x2 = 0 | 37.3 | 35.6 | 34.3 | 33.2
x2 = 0.0502 | 36.3 | 34.8 | 33.6 | 32.5
x2 = 0.1 | 35.4 | 34 | 32.8 | 31.8
x2 = 0.1498 | 34.4 | 33.2 | 32 | 31.1
x2 = 0.1998 | 33.4 | 32.4 | 31.3 | 30.4
x2 = 0.2499 | 32.5 | 31.6 | 30.5 | 29.6
x2 = 0.2998 | 31.6 | 30.8 | 29.8 | 28.9
x2 = 0.35 | 30.8 | 30 | 29.1 | 28.2
x2 = 0.4 | 30 | 29.2 | 28.4 | 27.5
x2 = 0.4501 | 29.3 | 28.5 | 27.7 | 26.7
x2 = 0.5 | 28.6 | 27.8 | 27 | 26
x2 = 0.5499 | 27.9 | 27.1 | 26.4 | 25.3
x2 = 0.6 | 27.2 | 26.4 | 25.8 | 24.7
x2 = 0.65 | 26.7 | 25.8 | 25.2 | 24.1
x2 = 0.7 | 26.2 | 25.2 | 24.6 | 23.5
x2 = 0.7499 | 25.8 | 24.8 | 24 | 22.9
x2 = 0.7999 | 25.2 | 24.2 | 23.4 | 22.3
x2 = 0.85 | 24.5 | 23.6 | 22.8 | 21.7
x2 = 0.9 | 23.8 | 22.9 | 22.1 | 21
x2 = 0.95 | 23.1 | 22.2 | 21.4 | 20.3

100.8 kPa
Settings | mass density, 293.15 K [kg/m3] | mass density, 303.15 K [kg/m3] | mass density, 313.15 K [kg/m3] | mass density, 323.15 K [kg/m3] | viscosity, 293.15 K [mPa·s] | viscosity, 303.15 K [mPa·s] | viscosity, 313.15 K [mPa·s] | viscosity, 323.15 K [mPa·s]
x2 = 0 | 1055.81 | 1046.74 | 1037.42 | 1027.51 | 2.324 | 1.836 | 1.474 | 1.256
x2 = 0.0502 | 1050.61 | 1041.18 | 1031.85 | 1021.88 | 2.18 | 1.75 | 1.413 | 1.22
x2 = 0.1 | 1044.89 | 1035.33 | 1025.96 | 1015.97 | 2.063 | 1.663 | 1.362 | 1.187
x2 = 0.1498 | 1038.77 | 1029.09 | 1019.7 | 1009.69 | 1.962 | 1.595 | 1.308 | 1.154
x2 = 0.1998 | 1032.15 | 1022.42 | 1012.98 | 1002.94 | 1.879 | 1.534 | 1.265 | 1.12
x2 = 0.2499 | 1025.14 | 1015.3 | 1005.82 | 995.85 | 1.808 | 1.477 | 1.226 | 1.086
x2 = 0.2998 | 1017.51 | 1007.78 | 998.2 | 988.26 | 1.736 | 1.42 | 1.181 | 1.05
x2 = 0.35 | 1009.27 | 999.68 | 989.97 | 980.03 | 1.672 | 1.375 | 1.143 | 1.015
x2 = 0.4 | 1000.55 | 990.86 | 981.2 | 971.24 | 1.613 | 1.327 | 1.101 | 0.979
x2 = 0.4501 | 991.15 | 981.38 | 971.7 | 961.72 | 1.551 | 1.281 | 1.067 | 0.943
x2 = 0.5 | 980.94 | 971.11 | 961.42 | 951.49 | 1.49 | 1.233 | 1.029 | 0.911
x2 = 0.5499 | 969.73 | 959.94 | 950.19 | 940.31 | 1.439 | 1.194 | 0.999 | 0.882
x2 = 0.6 | 957.31 | 947.61 | 937.83 | 927.98 | 1.392 | 1.151 | 0.964 | 0.853
x2 = 0.65 | 943.77 | 933.97 | 924.36 | 914.58 | 1.347 | 1.115 | 0.93 | 0.825
x2 = 0.7 | 928.69 | 919.03 | 909.51 | 899.72 | 1.305 | 1.077 | 0.891 | 0.795
x2 = 0.7499 | 912.06 | 902.5 | 893.04 | 883.26 | 1.267 | 1.038 | 0.867 | 0.77
x2 = 0.7999 | 893.44 | 883.9 | 874.6 | 864.86 | 1.232 | 1.009 | 0.841 | 0.743
x2 = 0.85 | 872.42 | 863.07 | 853.75 | 844.15 | 1.202 | 0.989 | 0.823 | 0.723
x2 = 0.9 | 848.54 | 839.36 | 830.17 | 820.71 | 1.188 | 0.982 | 0.812 | 0.704
x2 = 0.95 | 821.38 | 812.21 | 803.27 | 794.02 | 1.178 | 0.975 | 0.808 | 0.692

CC(=O)OCc1ccccc1 [benzyl ethanoate] + OCc1ccccc1
surface tension liquid-gas [mN/m]
Settings | x1 = 0.1001 | x1 = 0.2001 | x1 = 0.3 | x1 = 0.4001 | x1 = 0.5 | x1 = 0.6001 | x1 = 0.6999 | x1 = 0.8 | x1 = 0.9 | x1 = 1
293.15 K | 39.2 | 39.2 | 39.1 | 39 | 38.7 | 38.4 | 38.1 | 37.8 | 37.5 | 37.3
303.15 K | 38 | 37.9 | 37.8 | 37.5 | 37.1 | 36.7 | 36.3 | 36 | 35.8 | 35.6
313.15 K | 37 | 36.8 | 36.4 | 36 | 35.6 | 35.2 | 34.8 | 34.6 | 34.4 | 34.3
323.15 K | 36 | 35.7 | 35.2 | 34.8 | 34.3 | 33.9 | 33.5 | 33.4 | 33.3 | 33.2

101 kPa
Settings | mass density, 293.15 K [kg/m3] | mass density, 303.15 K [kg/m3] | mass density, 313.15 K [kg/m3] | mass density, 323.15 K [kg/m3] | viscosity, 293.15 K [mPa·s] | viscosity, 303.15 K [mPa·s] | viscosity, 313.15 K [mPa·s] | viscosity, 323.15 K [mPa·s]
x1 = 0.05 | 1046.29 | 1038.18 | 1030.21 | 1021.94 | 5.782 | 4.21 | 3.18 | 2.45
x1 = 0.1001 | 1047.03 | 1038.83 | 1030.76 | 1022.36 | 5.319 | 3.894 | 3.006 | 2.349
x1 = 0.1502 | 1047.73 | 1039.44 | 1031.27 | 1022.75 | 4.905 | 3.623 | 2.848 | 2.232
x1 = 0.2001 | 1048.38 | 1040.01 | 1031.72 | 1023.12 | 4.536 | 3.378 | 2.687 | 2.125
x1 = 0.25 | 1048.99 | 1040.58 | 1032.23 | 1023.48 | 4.214 | 3.165 | 2.536 | 2.021
x1 = 0.3 | 1049.58 | 1041.11 | 1032.67 | 1023.81 | 3.927 | 2.972 | 2.396 | 1.925
x1 = 0.3498 | 1050.15 | 1041.61 | 1033.08 | 1024.13 | 3.678 | 2.806 | 2.265 | 1.838
x1 = 0.4001 | 1050.71 | 1042.1 | 1033.48 | 1024.44 | 3.454 | 2.662 | 2.154 | 1.756
x1 = 0.45 | 1051.24 | 1042.57 | 1033.86 | 1024.73 | 3.252 | 2.535 | 2.056 | 1.683
x1 = 0.5 | 1051.77 | 1043.01 | 1034.24 | 1025.02 | 3.087 | 2.432 | 1.966 | 1.62
x1 = 0.5501 | 1052.26 | 1043.43 | 1034.6 | 1025.28 | 2.93 | 2.332 | 1.903 | 1.561
x1 = 0.6001 | 1052.74 | 1043.84 | 1034.94 | 1025.53 | 2.795 | 2.234 | 1.832 | 1.521
x1 = 0.65 | 1053.19 | 1044.24 | 1035.27 | 1025.79 | 2.684 | 2.171 | 1.774 | 1.482
x1 = 0.6999 | 1053.64 | 1044.62 | 1035.57 | 1026.04 | 2.589 | 2.091 | 1.728 | 1.444
x1 = 0.7502 | 1054.03 | 1044.99 | 1035.87 | 1026.28 | 2.505 | 2.035 | 1.684 | 1.41
x1 = 0.8 | 1054.42 | 1045.35 | 1036.18 | 1026.52 | 2.428 | 1.985 | 1.646 | 1.387
x1 = 0.85 | 1054.77 | 1045.7 | 1036.48 | 1026.77 | 2.376 | 1.941 | 1.613 | 1.361
x1 = 0.9 | 1055.11 | 1046.05 | 1036.79 | 1027.01 | 2.343 | 1.902 | 1.572 | 1.339
x1 = 0.95 | 1055.46 | 1046.4 | 1037.11 | 1027.26 | 2.326 | 1.867 | 1.524 | 1.308
x1 = 1 | 1055.81 | 1046.74 | 1037.42 | 1027.51 | 2.324 | 1.836 | 1.474 | 1.256
